Results on two compounds are retold here after US9448243B2, “Weak affinity chromatography” (priority 2013, dated 2016).

Test [1] concerns the target bovine serum albumin (BSA) (Bos taurus, UniProt P02769). Put plainly: Weak affinity chromatography of steroids on BSA columns (columns B, C). Format: binding. As to conditions: for k′ (capacity factor), Column B: 66 mg/g silica; for k′ (capacity factor), Column B / k′ (capacity factor), Column C: 20° C.; for k′ (capacity factor), Column C: 77 mg/g silica. The procedure:
(§1) Four columns were prepared, a blank diol-silica column (column A) having no binding ligands and 3 columns (columns B, C, D) loaded with albumin as the binding ligand. Column B was a silica packed column (7 μm, 300 Å porosity) loaded with 96% purity bovine serum albumin (BSA) at a concentration of 66 mg of BSA per gram of silica. Column C was a silica packed column (7 μm, 300 Å porosity) loaded with 99% purity bovine serum albumin (BSA) at a concentration of 77 mg of BSA per gram of silica. Column D was a silica packed column (7 μm, 300 Å porosity) loaded with 99% purity human serum albumin (HSA) at a concentration of 118 mg of HSA per gram of silica. All four column dimensions were 2.1×50 mm stainless steel. Immobilization of the ligands was performed batchwise with periodate activation. 0.5 g of diol-silica was used with 5 ml of H2O added. The silica was sonicated for 2 minutes, and 0.5 g of periodic acid was added to convert the diol groups to aldehyde-groups. After 2 hours of mixing, the aldehyde-silica was washed with 100 mM phosphate, pH 7.0. 5 ml of the respective ligand in 100 mM phosphate buffer, pH 7.0, was prepared. Ligand concentration was 10 mg/ml. 250 μl NaCNBH3, concentration of 0.1 mg/ml, was added. Coupling time was 40 hours at room temperature (22° C.) on mixing table.
(§2) The system comprised the columns used in an Agilent 1200-LC-MS system. The steroids were all dissolved in ethanol at a concentration of 0.05 μg/μl. 2 μl samples were run in duplicate. Solvent buffers used included phosphate buffered saline (PBS) at pH 7.4 and 5 mM ammonium-acetate (Am-Ac) salt, pH 6.9. Column temperature was 20° C. with a flow rate of 0.400 ml/min. Detection included the use of UV diode-array detector (DAD) at 237 nm.
(§3) The columns were tested with the PBS buffer and the Am-Ac listed above. The capacity factor (k′) and dissociation constant (Kd) were determined as set forth in U.S. Pat. No. 4,879,247 issued on Nov. 7, 1989 to Sten Ohlson, which is hereby incorporated by reference in its entirety.

Test [2] addresses human serum albumin (HSA) (Homo sapiens, UniProt P02768). Kind of test: Weak affinity chromatography of steroids on HSA column. Format: binding. As to conditions: for Kd: Column D, HSA 99% purity column; for k′ (capacity factor), Column D: HSA 99% purity, 118 mg/g silica, 20° C. The procedure:
as §1, §2, §3

Setting [3] is: Column B, 5 mM Am-Ac buffer pH 6.9, BSA 96% purity.
Setting [4] is: Column B, PBS buffer pH 7.4, BSA 96% purity.
The mark [5] stands for this setting: Column C, 5 mM Am-Ac buffer pH 6.9, BSA 99% purity.
[6] abbreviates: Column C, PBS buffer pH 7.4, BSA 99% purity.

bovine serum albumin (BSA), sequence (P02769 25-607): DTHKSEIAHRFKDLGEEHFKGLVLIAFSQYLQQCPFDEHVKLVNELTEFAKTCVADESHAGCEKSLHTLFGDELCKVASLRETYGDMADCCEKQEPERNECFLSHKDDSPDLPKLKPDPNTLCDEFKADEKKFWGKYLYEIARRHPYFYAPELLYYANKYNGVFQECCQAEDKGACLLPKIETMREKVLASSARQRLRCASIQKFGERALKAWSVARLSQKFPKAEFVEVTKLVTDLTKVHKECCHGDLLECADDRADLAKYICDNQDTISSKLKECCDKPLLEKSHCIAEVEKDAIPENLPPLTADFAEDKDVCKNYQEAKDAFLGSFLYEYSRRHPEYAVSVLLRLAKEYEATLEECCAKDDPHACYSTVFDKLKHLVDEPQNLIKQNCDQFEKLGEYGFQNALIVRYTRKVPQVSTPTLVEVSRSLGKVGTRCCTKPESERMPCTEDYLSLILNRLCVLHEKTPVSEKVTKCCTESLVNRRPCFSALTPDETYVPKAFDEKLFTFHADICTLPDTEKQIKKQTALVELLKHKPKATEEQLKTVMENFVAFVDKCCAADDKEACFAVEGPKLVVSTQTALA
human serum albumin (HSA), sequence (P02768 25-609): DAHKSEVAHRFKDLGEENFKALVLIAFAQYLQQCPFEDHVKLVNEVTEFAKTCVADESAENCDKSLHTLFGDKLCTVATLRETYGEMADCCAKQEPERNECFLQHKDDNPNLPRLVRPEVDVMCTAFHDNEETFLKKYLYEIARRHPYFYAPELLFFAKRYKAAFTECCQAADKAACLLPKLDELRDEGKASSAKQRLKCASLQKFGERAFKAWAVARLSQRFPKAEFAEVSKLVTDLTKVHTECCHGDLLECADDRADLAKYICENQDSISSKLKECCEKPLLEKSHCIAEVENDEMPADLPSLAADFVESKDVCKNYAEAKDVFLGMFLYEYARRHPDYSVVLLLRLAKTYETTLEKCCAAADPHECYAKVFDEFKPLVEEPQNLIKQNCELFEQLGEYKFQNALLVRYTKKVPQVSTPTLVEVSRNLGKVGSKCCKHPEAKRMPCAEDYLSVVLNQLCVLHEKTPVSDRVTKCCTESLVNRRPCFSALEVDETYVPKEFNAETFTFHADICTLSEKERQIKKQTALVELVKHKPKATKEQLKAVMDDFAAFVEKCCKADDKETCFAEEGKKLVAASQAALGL

For orientation: Kd means the equilibrium constant for the complex coming apart. Read a high Kd as lower affinity. Consider `C[C@]12C=CC(=O)C=C1CC[C@@H]1[C@@H]2[C@@H](O)C[C@@]2(C)[C@H]1CC[C@]2(O)C(=O)CO` [Prednisolone, prednisolone], for which the Kd in test [1] (setting [3]) stood at 257 µM; in test [1] (setting [4]) it was 230 µM; in test [1] (setting [5]), 227 µM; in test [1] (setting [6]) it was 216 µM; in test [2] (5 mM Am-Ac buffer pH 6.9), 596 µM; in test [2] (PBS buffer pH 7.4) it was 602 µM.
Consider `C[C@]12C=CC(=O)C=C1CC[C@@H]1[C@@H]2C(=O)C[C@@]2(C)[C@H]1CC[C@]2(O)C(=O)CO` [Prednisone, prednisone], for which the “k′ (capacity factor), Column B” value was found to be 1.01 in test [1] (5 mM Am-Ac buffer pH 6.9, BSA 96% purity) and 1.07 in test [1] (PBS buffer pH 7.4, BSA 96% purity). For the same compound, the “k′ (capacity factor), Column C” value in test [1] (5 mM Am-Ac buffer pH 6.9, BSA 99% purity) is recorded as 1.17; in test [1] (PBS buffer pH 7.4, BSA 99% purity), 1.23. The Kd in test [1] (setting [3]) came to 288 µM; in test [1] (setting [4]), 274 µM; in test [1] (setting [5]) it was 260 µM; in test [1] (setting [6]), 250 µM; in test [2] (5 mM Am-Ac buffer pH 6.9), 523 µM; in test [2] (PBS buffer pH 7.4), 516 µM. For the same compound, the “k′ (capacity factor), Column D” value in test [2] (5 mM Am-Ac buffer pH 6.9) was 1.78; in test [2] (PBS buffer pH 7.4) it was 1.74.
